In the NIST ThermoML archive (doi:10.1021/je400423u):

Experiment: xn = mol fraction of the nth substance listed
Conditions: 101 kPa, Liquid; for mass density: Vibrating tube method; for viscosity: Falling or rolling sphere viscometry

CC(C)CO [2-methyl-1-propanol] + CCC(C)O
Conditions	mass density [kg/m3]	viscosity [mPa·s]
303.15 K, x2 = 0.1009	794.484	–
303.15 K, x2 = 0.2	794.891	–
303.15 K, x2 = 0.3008	795.309	–
303.15 K, x2 = 0.4	795.723	–
303.15 K, x2 = 0.5002	796.151	–
303.15 K, x2 = 0.5999	796.585	–
303.15 K, x2 = 0.7004	797.029	–
303.15 K, x2 = 0.8007	797.475	–
303.15 K, x2 = 0.9005	797.918	–
308.15 K, x2 = 0.1009	790.501	2.443
308.15 K, x2 = 0.2	790.872	2.386
308.15 K, x2 = 0.3008	791.253	2.337
308.15 K, x2 = 0.4	791.633	2.292
308.15 K, x2 = 0.5002	792.024	2.248
308.15 K, x2 = 0.5999	792.423	2.206
308.15 K, x2 = 0.7004	792.831	2.168
308.15 K, x2 = 0.8007	793.242	2.139
308.15 K, x2 = 0.9005	793.65	2.127
313.15 K, x2 = 0.1009	786.45	2.107
313.15 K, x2 = 0.2	786.78	2.053
313.15 K, x2 = 0.3008	787.122	2.005
313.15 K, x2 = 0.4	787.465	1.962
313.15 K, x2 = 0.5002	787.818	1.92
313.15 K, x2 = 0.5999	788.177	1.881
313.15 K, x2 = 0.7004	788.546	1.845
313.15 K, x2 = 0.8007	788.917	1.816
313.15 K, x2 = 0.9005	789.288	1.804
318.15 K, x2 = 0.1009	782.34	1.824
318.15 K, x2 = 0.2	782.624	1.772
318.15 K, x2 = 0.3008	782.922	1.727
318.15 K, x2 = 0.4	783.222	1.685
318.15 K, x2 = 0.5002	783.533	1.646
318.15 K, x2 = 0.5999	783.848	1.608
318.15 K, x2 = 0.7004	784.171	1.575
318.15 K, x2 = 0.8007	784.497	1.551
318.15 K, x2 = 0.9005	784.827	1.54
323.15 K, x2 = 0.1009	778.155	1.59
323.15 K, x2 = 0.2	778.391	1.544
323.15 K, x2 = 0.3008	778.641	1.5
323.15 K, x2 = 0.4	778.895	1.46
323.15 K, x2 = 0.5002	779.158	1.422
323.15 K, x2 = 0.5999	779.423	1.387
323.15 K, x2 = 0.7004	779.696	1.357
323.15 K, x2 = 0.8007	779.974	1.336
323.15 K, x2 = 0.9005	780.258	1.326
328.15 K, x2 = 0.1009	773.896	1.393
328.15 K, x2 = 0.2	774.077	1.35
328.15 K, x2 = 0.3008	774.275	1.309
328.15 K, x2 = 0.4	774.479	1.27
328.15 K, x2 = 0.5002	774.689	1.235
328.15 K, x2 = 0.5999	774.903	1.204
328.15 K, x2 = 0.7004	775.122	1.178
328.15 K, x2 = 0.8007	775.348	1.161
328.15 K, x2 = 0.9005	775.581	1.152
333.15 K, x2 = 0.1009	769.551	1.225
333.15 K, x2 = 0.2	769.674	1.186
333.15 K, x2 = 0.3008	769.816	1.148
333.15 K, x2 = 0.4	769.965	1.112
333.15 K, x2 = 0.5002	770.119	1.079
333.15 K, x2 = 0.5999	770.277	1.051
333.15 K, x2 = 0.7004	770.441	1.029
333.15 K, x2 = 0.8007	770.611	1.014
333.15 K, x2 = 0.9005	770.793	1.006
338.15 K, x2 = 0.1009	765.116	1.082
338.15 K, x2 = 0.2	765.18	1.047
338.15 K, x2 = 0.3008	765.264	1.012
338.15 K, x2 = 0.4	765.355	0.9794
338.15 K, x2 = 0.5002	765.452	0.9497
338.15 K, x2 = 0.5999	765.551	0.9246
338.15 K, x2 = 0.7004	765.654	0.9053
338.15 K, x2 = 0.8007	765.765	0.8922
338.15 K, x2 = 0.9005	765.89	0.8861
343.15 K, x2 = 0.1009	760.581	0.9613
343.15 K, x2 = 0.2	760.585	0.9301
343.15 K, x2 = 0.3008	760.608	0.8988
343.15 K, x2 = 0.4	760.64	0.8691
343.15 K, x2 = 0.5002	760.676	0.8429
343.15 K, x2 = 0.5999	760.714	0.8207
343.15 K, x2 = 0.7004	760.754	0.8035
343.15 K, x2 = 0.8007	760.802	0.7921
343.15 K, x2 = 0.9005	760.867	0.7862
